Assay results from patent US9273021B2, “Dibenzofuran derivatives as inhibitors of fructose 1,6-bisphosphatase and methods of use thereof” (TRUSTEES OF BOSTON COLLEGE, priority 2009, dated 2016).
“And” between values parts separate entries of the source, which are not always exact repeats. Equal values may be shown once. Read-outs that look alike come from different tables or passages of the source.

What was measured:
pig kidney FBPase = pig kidney FBPase (Sus scrofa, UniProt P00636); test: FBPase activity, enzyme-coupled spectrophotometric assay; format: biochemical; settings: for IC50: pig kidney FBPase; for inhibition of pig kidney FBPase relative to AMP: compared with AMP, the natural allosteric inhibitor
Chain of pig kidney FBPase (P00636 2-338 limits assumed): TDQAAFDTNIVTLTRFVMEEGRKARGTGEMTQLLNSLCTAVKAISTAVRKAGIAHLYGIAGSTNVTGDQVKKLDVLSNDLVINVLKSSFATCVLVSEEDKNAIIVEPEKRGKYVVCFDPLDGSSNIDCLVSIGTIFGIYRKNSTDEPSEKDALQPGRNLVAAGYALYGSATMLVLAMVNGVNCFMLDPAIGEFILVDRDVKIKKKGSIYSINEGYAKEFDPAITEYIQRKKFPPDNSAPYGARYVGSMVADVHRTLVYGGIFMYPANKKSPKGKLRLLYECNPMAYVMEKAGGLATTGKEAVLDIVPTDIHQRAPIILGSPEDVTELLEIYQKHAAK
Procedure: The test were performed using an enzyme-coupled assay^17 with AMP as a control.
(§1) FBPase activity was measured spectrophotometrically by employing the coupling enzymes phosphoglucose isomerase and glucose-6-phosphate dehydrogenase.^17 The reduction of NADP+ to NADPH was monitored directly at 340 nm. Specifically, buffer (0.2 M Tris, 4 mM MgCl2, 4 mM (NH4)2SO4, 0.1 EDTA, pH 7.5), 0.2 mM of NADP+, 1.4 units of phosphoglucose isomerase and 0.5 units of glucose-6-phosphate dehydrogenase, 0-300M of inhibitor and 9 ng of FBPase, were mixed in a cuvette and equilibrated at 30° C. 70M of FBP was then added to initiate the reaction. Absdata were collected as a function of time using a JASCO V-630 spectrophotometer.
(§2) After a lag phase, due to coupling, a straight line was fitted to the progress curve and the slope value was recorded asAbs340 per min. The amount of NADPH produced per minute was calculated using the 340 nm millimolar extinction coefficient of 6.22. At each inhibitor concentration, reactions were performed in duplicate. Inhibition curves were obtained for each compound by plotting the relative activity versus inhibitor concentration.

human liver FBPase = human liver FBPase (Homo sapiens (Human), UniProt P09467); test: as above; format: biochemical; settings: for IC50: human liver FBPase; for inhibition of human liver FBPase relative to AMP: compared with AMP, the natural allosteric inhibitor
Chain of human liver FBPase (P09467 2-338): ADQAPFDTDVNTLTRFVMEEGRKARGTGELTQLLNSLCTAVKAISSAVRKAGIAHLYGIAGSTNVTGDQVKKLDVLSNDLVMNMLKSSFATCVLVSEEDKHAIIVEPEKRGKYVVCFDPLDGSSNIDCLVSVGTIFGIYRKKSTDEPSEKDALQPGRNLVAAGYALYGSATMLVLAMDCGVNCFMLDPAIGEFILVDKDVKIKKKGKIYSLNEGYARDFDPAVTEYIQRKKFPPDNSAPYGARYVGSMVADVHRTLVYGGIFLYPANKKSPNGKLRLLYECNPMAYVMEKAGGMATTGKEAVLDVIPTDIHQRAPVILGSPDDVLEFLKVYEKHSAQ
Procedure: Compounds 3 and 4 (see Scheme 1) were synthesized and tested to determine if they could inhibit either pig kidney or human liver FBPase. The test were performed using an enzyme-coupled assay^17 with AMP as a control.
as §1, §2

plasma glucose levels = settings: compared with Metformin (250 mg/kg); cited from earlier work
[1] = test system: allosteric site of FBPase; test: TNP-AMP fluorescence competition experiment; format: binding; settings: TNP-AMP at 0.5 times its Kd
Procedure: Fluorescence data were collected using a JASCO FP-6300 spectro-fluorometer. Excitation and emission wavelengths of 410 and 535 nm respectively were used for TNPAMP (Molecular Probes). 0.15 mg of the respective FBPases, 0.08 mM MgCl and 20M fructose 1, 6-2 bisphosphate in 50 mM Tris-acetate buffer, pH 7.5, was added to a 2 mL cuvette and stirred. 3.5 M of TNP-AMP was added to the cuvette and the emission data was obtained Microliter volumes of 3 were subsequently added to the cuvette and resultant emission data was obtained after each addition. The final concentration of 3 in the enzyme solution was 6M.

[2] = Solubility (remark in competition experiment); format: physicochemical
[3] = read-out: FBPase, IC50 Human Liver

Row | SMILES | IC50 (pig kidney FBPase) | IC50 (human liver FBPase; [3]) | lowering of plasma glucose levels (plasma glucose levels) | IC50 (human liver FBPase; read-out: IC50 human liver FBPase) | inhibition of pig kidney FBPase relative to AMP (pig kidney FBPase) | inhibition of human liver FBPase relative to AMP (human liver FBPase) | TNP-AMP fluorescence on addition of increasing concentrations of compound [1] | solubility [2]
1 | Nc1ncnc2c1ncn2[C@@H]1O[C@H](COP(=O)(O)O)[C@@H](O)[C@H]1O [AMP, reference compound] | 1.3 µM | 9.7 µM and 9.8 µM | – | – | – | – | – | –
2 | C=C(C)C(O)Cc1c(O)c(C(=O)C(C)CC)c(O)c2c1oc1c(C(=O)C(C)CC)c(O)c(CC=C(C)C)c(O)c12 (stereo not shown) [Compound 1, achyrofuran] | – | – | better than that of Metformin | – | – | – | – | –
3 | CC(=O)C1=C(O)C=C2Oc3c(C(C)=O)c(O)c(C)c(O)c3[C@@]2(C)C1=O [Compound 2, (+)-usnic acid, reference compound] | – | – | – | 370 µM | – | – | – | –
4 | CC(C)CC(=O)c1c(O)cc2oc3c(C(=O)CC(C)C)c(O)cc(O)c3c2c1O [Compound 3, 1,1′-(1,3,7,9-tetrahydroxydibenzofuran-2,6-diyl)bis(3-methylbutan-1-one)] | 1.5 ± 0.1 µM | 8.1 µM | – | – | comparable to that of AMP | comparable to that of AMP | substantial diminution of the TNP-AMP fluorescence | relatively low solubility
5 | CCC(C)C(=O)c1c(O)cc2oc3c(C(=O)C(C)CC)c(O)cc(O)c3c2c1O (stereo not shown) [Compound 4, 1,1′-(1,3,7,9-tetrahydroxydibenzofuran-2,6-diyl)bis(2-methylbutan-1-one)] | 5 µM | 6 µM | – | – | comparable to that of AMP | comparable to that of AMP | substantial diminution of the TNP-AMP fluorescence | relatively low solubility
